Experimental data from patent US20180071317A1, “USE OF AGENTS THAT ALTER THE PERITUMORAL ENVIRONMENT FOR THE TREATMENT OF CANCER” (SERVICIO ANDALUZ DE SALUD, priority 2011, published 2018).

How the values were obtained:
[1] = test system: fibroblasts (PHF) co-cultured with tumor cells of human endometrial carcinoma (AN3-CA); assay: Marker expression (IHC) in PHF co-cultured with AN3-CA tumor cells; assay type: cell-based; conditions: co-culture with AN3-CA; SP 1 μM + antagonist 1 μM; 48 h;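 further: cultured in fresh healthy-donor blood plasma with added antibiotic-antimycotic, run in six replicates, values give percent of fibroblasts positive for each marker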
Experimental: (§1) All cultures were maintained 48 hours, following which the same cells were included in paraffin blocks for subsequent analysis of the expression of different markers by immunohistochemistry (see Example 1). […] All experiments were carried out sixfold. Analyzed markers in fibroblast cells (stromal cells) were: TGF-α, TGF-β1, TGF-β2, TGF-β3, SPARC, MMP-3, MMP-7, MMP-9, MMP-11, MMP-13 and MMP-14.

[2] = test system: fibroblasts (PHF) co-cultured with human glioma tumor cells (GAMG); assay: Marker expression (IHC) in PHF co-cultured with GAMG tumor cells; assay type: cell-based; conditions: co-culture with GAMG; SP 1 μM + antagonist 1 μM; 48 h;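 further: percentage of PHF fibroblasts positive for each marker, cultured in fresh plasma from a healthy donor, six replicates, with fibroblasts cultured alone as reference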
Experimental: as §1

[3] = test system: fibroblasts (PHF) co-cultivated with tumor cell lymphoblastic leukemia B (SDI); assay: Marker expression (IHC) in PHF co-cultured with SDI tumor cells; assay type: cell-based, human; conditions: PHF co-cultivated with SDI + SP + NK1 antagonist
Experimental: as §1

[4] = test system: fibroblasts of tumors produced by human glioma tumor line (GAMG); assay: Marker expression (IHC) in fibroblasts of tumor or peritumoral area, mouse model, GAMG; assay type: in vivo; conditions: GAMG tumors in mice, 30 mg/kg/day oral, 7 days
Experimental: In vitro tests conducted in Example 5 are now carried out in an experimental model in mice in vivo. […] Subsequently, the expression in fibroblasts tumoral and peritumoral area of molecular markers associated with progression and maintenance of tumors: TGF-α, TGF-β1, TGF-β2, TGF-β3, MMP-7, MMP-11, MMP-14 were analyzed by immunohistochemistry.
Were injected with 2×10^7 cells tumors (corresponding, in each case to each of the tumor types as specified in Table 9) in 200 of PBS subcutaneously μl. […] Mice were randomized into two groups when the tumors reached a volume of 75 mm^3 One group was treated with non-peptide receptor antagonists NK1 and the other with placebo 200μ1. […] Tumors and samples of non-neoplastic stromal areas remote from the tumor were halved, formalin fixed (4%) and then were included in paraffin blocks for analysis by immunohistochemistry.
The expression on fibroblast cells obtained in the animal model was analyzed by immunohistochemistry, of the above markers: TGF-α, TGF-β1, TGF-β2, TGF-β3, MMP-7, MMP-1 1, MMP-14MP-14. Tables 32 to 35 depict the type of label used and the average percentage of fibroblasts present in non-tumor areas, tumor and peritumoral (±SD) which were expressing the marker shown in each of the tumor types developed from of the different cell lines used. This process was realized in mice treated with non-peptide antagonists of NK1 receptor and in untreated animals (control).

[5] = test system: fibroblast cells in co-culture with cells isolated from primary human tumors; assay: Marker expression (IHC) in fibroblasts co-cultured with primary human tumor cells (colon, pancreatic, lung carcinoma, glioma, multiple myeloma); assay type: cell-based
Experimental: To check that the interaction of the human primary tumor cells with stromal cells, [human fibroblasts,] stimulates the secretion of substances of importance for survival and tumor progression, co-cultures were performed using stromal cells with human fibroblast-tumor cells obtained directly from primary human tumors.
On this occasion, in order to identify, using immunohistochemical techniques, the secretion of substances of importance for the survival and progression of tumors, the following antibodies were used: TGF-α (SAB4502953), TGF-β1 (SAB4502954), TGF-β2 (SAB4502956), TGF-β3 (SAB4502957), SPARC (HPA002989), MMP-3 (HPA007875), MMP-7 (SAB4501894), MMP-9 (SAB4501896), MMP-11 (SAB4501898) MMP-13 (SAB4501900) and MMP-14 (SAB4501901) using specific antibodies against them. All antibodies used were rabbit polyclonal antibodies obtained from Sigma-Aldrich and were used at a concentration of 1/1000 to achieve these immunohistochemical studies. All experiments were carried out sixfold.

[6] = test system: leukocyte cells (mono and polymorphonuclear) in co-culture with cells isolated from primary human tumors; assay: Marker expression (IHC) in leukocytes co-cultured with primary human tumor cells (colon, pancreatic, lung carcinoma, glioma, melanoma); assay type: cell-based; conditions: SP 1 μM + antagonist 1 μM;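 further: tumor cells and leukocytes came from the same patients, co-culture contents were paraffin-embedded for immunohistochemistry with antibodies to TGF-β2 or NF-kB, leukocytes cultured alone served as control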
Experimental: To check that the interaction of the human primary tumor cells with cells of the immune/inflammatory (mono and polymorphonuclear leukocytes) cells, stimulates the secretion of substances of importance for survival and tumor progression, cultures were carried out using sets of immune cells/inflammatory (mono and polymorphonuclear leukocytes) with tumor cells obtained directly from primary human tumors of the same patients.
The same method described in Example 7 and 9 was used to obtain tumor cells from primary human tumors. Similarly cultured immune cells/inflammatory (mono and polymorphonuclear leukocytes) were used as control and secondly, cultured tumor cells isolated from patients in the presence of immune cells/inflammatory (mono and polymorphonuclear leukocytes).
Then, paraffin blocks were prepared with the contents of each of the groups mentioned previously for expression studies using immunohistochemistry. On this occasion, in order to identify the secretion of substances with importance for the survival and progression of tumor the following markers were analyzed: TGF-β2 (SAB4502956) and NF-kB (SAB4501992) using specific antibodies against them. All antibodies used were rabbit polyclonal antibodies obtained from Sigma Aldrich and were used at a concentration of 1/1000. Immunohistochemical techniques were performed and evaluated as described in previous examples.

[7] = Primary tumor cells (colon carcinoma) co-cultured + fibroblast + SP (1 μM) + NK1 antagonist 1 μM
[8] = co-culture with cells isolated from glioma, SP 1 μM + antagonist 1 μM
[9] = co-culture with cells isolated from lung cancer, SP 1 μM + antagonist 1 μM
[10] = co-culture with cells isolated from multiple myeloma, SP 1 μM + antagonist 1 μM
[11] = co-culture with cells isolated from pancreatic carcinoma, SP 1 μM + antagonist 1 μM
[12] = co-culture with cells isolated from colon carcinoma
[13] = co-culture with cells isolated from glioma
[14] = co-culture with cells isolated from lung carcinoma
[15] = co-culture with cells isolated from melanoma
[16] = co-culture with cells isolated from pancreatic carcinoma

Cc1cc(F)ccc1[C@H]1CNCCN1C(=O)N(C)[C@H](C)c1cc(C(F)(F)F)cc(C(F)(F)F)c1 [Vestipitant]
0%: PHF cells expressing MMP-3 [1] | PHF cells expressing MMP-7 [1] | PHF cells expressing MMP-9 [1] | PHF cells expressing MMP-11 [1] | PHF cells expressing MMP-13 [1] | PHF cells expressing MMP-14 [1] | PHF cells expressing SPARC [1] | PHF cells expressing TGF-α [1] | PHF cells expressing TGF-β1 [1] | PHF cells expressing TGF-β2 [1] | PHF cells expressing TGF-β3 [1] | PHF cells expressing MMP-3 [2] | PHF cells expressing MMP-7 [2] | PHF cells expressing MMP-9 [2] | PHF cells expressing MMP-11 [2] | PHF cells expressing MMP-13 [2] | PHF cells expressing MMP-14 [2] | PHF cells expressing SPARC [2] | PHF cells expressing TGF-α [2] | PHF cells expressing TGF-β1 [2] | PHF cells expressing TGF-β2 [2] | PHF cells expressing TGF-β3 [2] | cells expressing MMP-3 [3] | cells expressing MMP-7 [3] | cells expressing MMP-9 [3] | cells expressing MMP-11 [3] | cells expressing MMP-13 [3] | cells expressing MMP-14 [3] | cells expressing SPARC [3] | cells expressing TGF-α [3] | cells expressing TGF-β1 [3] | cells expressing TGF-β2 [3] | cells expressing TGF-β3 [3] | fibroblasts expressing MMP-7 [4] | fibroblasts expressing MMP-11 [4] | fibroblasts expressing MMP-14 [4] | fibroblasts expressing TGF-α [4] | fibroblasts expressing TGF-β 1 [4] | fibroblasts expressing TGF-β 2 [4] | fibroblasts expressing TGF-β 3 [4] | Percentage of fibroblast cells which expressed MMP-3 [5, 7] | Percentage of fibroblast cells which expressed MMP-7 [5, 7] | Percentage of fibroblast cells which expressed MMP-9 [5, 7] | Percentage of fibroblast cells which expressed MMP-11 [5, 7] | Percentage of fibroblast cells which expressed MMP-13 [5, 7] | Percentage of fibroblast cells which expressed MMP-14 [5, 7] | Percentage of fibroblast cells which expressed SPARC [5, 7] | Percentage of fibroblast cells which expressed TGFα [5, 7] | Percentage of fibroblast cells which expressed TGFβ1 [5, 7] | Percentage of fibroblast cells which expressed TGFβ2 [5, 7] | Percentage of fibroblast cells which expressed TGFβ3 [5, 7] | Percentage of fibroblast cells which expressed MMP-3 [5, 8] | Percentage of fibroblast cells which expressed MMP-7 [5, 8] | Percentage of fibroblast cells which expressed MMP-9 [5, 8] | Percentage of fibroblast cells which expressed MMP-11 [5, 8] | Percentage of fibroblast cells which expressed MMP-13 [5, 8] | Percentage of fibroblast cells which expressed MMP-14 [5, 8] | Percentage of fibroblast cells which expressed SPARC [5, 8] | Percentage of fibroblast cells which expressed TGFα [5, 8] | Percentage of fibroblast cells which expressed TGFβ1 [5, 8] | Percentage of fibroblast cells which expressed TGFβ2 [5, 8] | Percentage of fibroblast cells which expressed TGFβ3 [5, 8] | Percentage of fibroblast cells which expressed MMP-3 [5, 9] | Percentage of fibroblast cells which expressed MMP-7 [5, 9] | Percentage of fibroblast cells which expressed MMP-9 [5, 9] | Percentage of fibroblast cells which expressed MMP-11 [5, 9] | Percentage of fibroblast cells which expressed MMP-13 [5, 9] | Percentage of fibroblast cells which expressed MMP-14 [5, 9] | Percentage of fibroblast cells which expressed SPARC [5, 9] | Percentage of fibroblast cells which expressed TGFα [5, 9] | Percentage of fibroblast cells which expressed TGFβ1 [5, 9] | Percentage of fibroblast cells which expressed TGFβ2 [5, 9] | Percentage of fibroblast cells which expressed TGFβ3 [5, 9] | Percentage of fibroblast cells which expressed MMP-3 [5, 10] | Percentage of fibroblast cells which expressed MMP-7 [5, 10] | Percentage of fibroblast cells which expressed MMP-9 [5, 10] | Percentage of fibroblast cells which expressed MMP-11 [5, 10] | Percentage of fibroblast cells which expressed MMP-13 [5, 10] | Percentage of fibroblast cells which expressed MMP-14 [5, 10] | Percentage of fibroblast cells which expressed SPARC [5, 10] | Percentage of fibroblast cells which expressed TGFα [5, 10] | Percentage of fibroblast cells which expressed TGFβ1 [5, 10] | Percentage of fibroblast cells which expressed TGFβ2 [5, 10] | Percentage of fibroblast cells which expressed TGFβ3 [5, 10] | Percentage of fibroblast cells which expressed MMP-3 [5, 11] | Percentage of fibroblast cells which expressed MMP-7 [5, 11] | Percentage of fibroblast cells which expressed MMP-9 [5, 11] | Percentage of fibroblast cells which expressed MMP-11 [5, 11] | Percentage of fibroblast cells which expressed MMP-13 [5, 11] | Percentage of fibroblast cells which expressed MMP-14 [5, 11] | Percentage of fibroblast cells which expressed SPARC [5, 11] | Percentage of fibroblast cells which expressed TGFα [5, 11] | Percentage of fibroblast cells which expressed TGFβ1 [5, 11] | Percentage of fibroblast cells which expressed TGFβ2 [5, 11] | Percentage of fibroblast cells which expressed TGFβ3 [5, 11] | Percentage of mononuclear leukocytes cells which expressed NF-kB [6, 12] | Percentage of mononuclear leukocytes cells which expressed TGF-β [6, 12] | Percentage of polymorphonuclear leukocytes cells which expressed NF-kB [6, 12] | Percentage of polymorphonuclear leukocytes cells which expressed TGF-β [6, 12] | Percentage of mononuclear leukocytes cells expressing NF-kB [6, 13] | Percentage of mononuclear leukocytes cells expressing TGF-β [6, 13] | Percentage of polymorphonuclear leukocytes cells expressing NF-kB [6, 13] | Percentage of polymorphonuclear leukocytes cells expressing TGF-β [6, 13] | Percentage of mononuclear leukocytes cells which expressed NF-kB [6, 14] | Percentage of mononuclear leukocytes cells which expressed TGF-β [6, 14] | Percentage of polymorphonuclear leukocytes cells which expressed NF-kB [6, 14] | Percentage of polymorphonuclear leukocytes cells which expressed TGF-β [6, 14] | Percentage of mononuclear leukocytes cells which expressed NF-kB [6, 15] | Percentage of mononuclear leukocytes cells which expressed TGF-β [6, 15] | Percentage of polymorphonuclear leukocytes cells which expressed NF-kB [6, 15] | Percentage of polymorphonuclear leukocytes cells which expressed TGF-β [6, 15] | Percentage of mononuclear leukocytes cells which expressed NF-kB [6, 16] | Percentage of mononuclear leukocytes cells which expressed TGF-β [6, 16] | Percentage of polymorphonuclear leukocytes cells which expressed NF-kB [6, 16] | Percentage of polymorphonuclear leukocytes cells which expressed TGF-β [6, 16]
